Results reported in patent US12133841B2, “Heterocyclic compounds as kinase inhibitors, compositions comprising the heterocyclic compound, and methods of use thereof” (JS INNOMED HOLDINGS LTD., priority 2018, dated 2024).

How the values were obtained:
human ERK2 = target: T1, human ERK2 (Homo sapiens, UniProt P28482); test: LanthaScreen TR-FRET ERK2 enzymatic assay; details: 5 μM ATP, one hour reaction; read-out: ERK2 Biochemical Activity (IC50 of ERK2 inhibition)
T1 construct: recombinantly expressed as GST-tagged full-length protein purified from E. coli; GST; purchased Invitrogen PV3311; host or cells: E. coli
T1 sequence (P28482 whole entry): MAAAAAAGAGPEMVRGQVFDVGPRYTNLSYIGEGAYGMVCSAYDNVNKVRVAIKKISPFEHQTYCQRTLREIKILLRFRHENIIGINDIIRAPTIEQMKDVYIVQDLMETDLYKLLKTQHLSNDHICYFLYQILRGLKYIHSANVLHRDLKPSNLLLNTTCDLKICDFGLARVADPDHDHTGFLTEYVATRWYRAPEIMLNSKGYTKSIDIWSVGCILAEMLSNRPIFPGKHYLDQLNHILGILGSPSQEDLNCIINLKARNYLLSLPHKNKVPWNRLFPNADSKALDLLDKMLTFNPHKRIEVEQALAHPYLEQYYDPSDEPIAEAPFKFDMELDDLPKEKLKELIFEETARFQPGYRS
Procedure: Compounds were tested in a LanthaScreen™ time-resolved fluorescence energy transfer (TR-FRET) enzymatic assay from Invitrogen. The assay used human ERK2 (Mitogen Activated Kinase 1, Invitrogen, Cat. PV3311) recombinantly expressed as GST-tagged full-length protein purified from E. coli and activated in vitro with MAP2K1. The substrate was a recombinant truncated version (residues 19-96) of ATF2 fused with Green Fluorescent Protein (Invitrogen, Cat. PV4445). Test compounds were prepared and diluted in DMSO in 3-fold serial dilutions to 100× of the final testing concentrations. The compounds were then further diluted to 4× by the kinase reaction buffer (Invitrogen, Cat. PV3189). The enzymatic reaction for compound testing was performed in a white 384-well polypropylene plate (Packard, Cat. 6005214) with a total reaction volume of 10 μl containing 20 ng/ml ERK2, 400 nM substrate, and 5 μM ATP that is around its Km. The assay started with loading 2.5 μl of ERK2 diluted in kinase reaction buffer to wells, followed by addition of equal volume of 4× compounds for 15-min incubation at the room temperature for pre-treatment. The enzymatic reaction was initiated by addition of 5 μl of mixture of the substrate and ATP prepared in kinase reaction buffer. After one hour reaction, 10 μl mixture of EDTA (final 10 mM) and terbium-labeled anti-pATF2 (pThr71) antibody (final 2 nM) (Invitrogen, Cat. PV4451) prepared in TR-FRET antibody dilution buffer (Invitrogen, Cat. PV3574) was added to stop the enzymatic reaction and produce TR-FRET signals. After 30 minutes of incubation at room temperature, the plate was read in Tecan Infinite F200 Pro with the following settings: Excitation 340 nm (30)/Emission1 495 nm (10)/Emission2 520 nm (25). The TR-FRET values were dimensionless numbers that were calculated as the ratio of the acceptor ([…]) signal to the donor (Terbium) signal. Percent of control was calculated as the percentage of compound-treated vs 1% DMSO vehicle-treated. The dose-response curves were generated and the IC50s were calculated by nonlinear sigmoid curve fitting using GraphPad Prism.
The IC50 values of ERK2 inhibition for compounds disclosed are listed in Table 3, A: ≤10 nM; B: >10 nM and ≤100 nM; C: >100 nM and ≤1 uM; D: >1 μM.

Colo205 cell line = test: Colo205 cell proliferation assay (MTT assay, WST-8); assay type: cell-based; details: Homo sapiens, COLO 205; 72 hours incubation; read-out: Colo 205 Cell Activity (IC50 of growth inhibition in Colo 205 cells)
Procedure: Compounds disclosed herein were tested for the inhibition of ERK2 by a Colo205 cell proliferation assay commonly known as MTT assay. In this assay, a complete media was prepared by adding 10% fetal bovine serum to RPMI-1640 medium (Life technology). Colon cancer cells (Colo205 cell line) were added to each of 88 wells of a 96 well plate at a seeding density of 5,000 cells/well/90 μL. The cells were allowed to attach to the plate by incubating at 37° C. for 24 hours. The compound was dissolved in DMSO (SIGMA). A solution of test compound was prepared in complete media by serial dilution to obtain the following concentrations: 500 μM, 150 μM, 50 μM, 15 μM, 5 μM, 1.5 μM, 0.5 μM, 0.15 μM and 0.05 μM. The test compound solution (10 μL) was added to each of 80 cell-containing wells. The final concentrations of the compound were following: 50 μM, 15 μM, 5 μM, 1.5 μM, 0.5 μM, 0.15 μM, 0.05 μM, 0.015 μM and 0.005 μM. The final concentration of DMSO is 0.5%. To the 8 remaining cell-containing wells, only complete media (containing 0.5% DMSO) was added to form a control group in order to measure maximal proliferation. To the remaining 8 empty wells, complete media was added to for a vehicle control group in order to measure background. The plates were incubated at 37° C. for 72 hours. 10 μL WST-8 solution (DOJINDO, Cell Counting KIT-8) was added to each well. The plates were further incubated at 37° C. for 2 hours, and then read for the absorbance using a microplate reader at 450 nm.
The IC50 values of growth inhibition in Colo 205 cells for compounds disclosed are listed in Table 3, A′: ≤0.5 μM; B′: >0.5 μM and ≤1 μM; C′: >1.0 μM and ≤5 uM; D′: >5 μM.

SMILES | IC50 (human ERK2) [nM] | IC50 (Colo205 cell line) [nM]
CC(c1ccnc(C(F)(F)F)c1)N1C(=O)c2cc(-c3ccnc(Nc4ccnn4C)n3)sc2C1(C)C (racemic) [Example 9, 6,6-dimethyl-2-(2-(1-methyl-1H-pyrazol-5-ylamino)pyrimidin-4-yl)-5-(1-(2-(trifluoromethyl)pyridin-4-yl)ethyl)-5,6-dihydro-4H-thieno[2,3-c]pyrrol-4-one] | ≤ 10 | ≤ 500
CC(c1nc(C(F)(F)F)cs1)N1C(=O)c2cc(-c3ccnc(Nc4ccnn4C)n3)sc2C1(C)C (racemic) [Example 10, 6,6-dimethyl-2-(2-(1-methyl-1H-pyrazol-5-ylamino)pyrimidin-4-yl)-5-(1-(4-(trifluoromethyl)thiazol-2-yl)ethyl)-5,6-dihydro-4H-thieno[2,3-c]pyrrol-4-one] | ≤ 10 | ≤ 500
Cn1nccc1Nc1nccc(-c2cc3c(s2)C(C)(C)N(Cc2ccnc(C(F)(F)F)c2)C3=O)n1 [Example 1, 6,6-dimethyl-2-(2-(1-methyl-1H-pyrazol-5-ylamino)pyrimidin-4-yl)-5-((2-(trifluoromethyl)pyridin-4-yl)methyl)-5,6-dihydro-4H-thieno[2,3-c]pyrrol-4-one] | ≤ 10 | ≤ 500
Cn1nccc1Nc1nccc(-c2cc3c(s2)C(C)(C)N(Cc2cccc(Cl)c2)C3=O)n1 [Example 2, 5-(3-chlorobenzyl)-6,6-dimethyl-2-(2-(1-methyl-1H-pyrazol-5-ylamino)pyrimidin-4-yl)-5,6-dihydro-4H-thieno[2,3-c]pyrrol-4-one] | ≤ 10 | ≤ 500
Cn1nccc1Nc1nccc(-c2cc3c(s2)C(C)(C)N(Cc2cccc(C(F)(F)F)n2)C3=O)n1 [Example 3, 6,6-dimethyl-2-(2-((1-methyl-1H-pyrazol-5-yl)amino)pyrimidin-4-yl)-5-((6-(trifluoromethyl)pyridin-2-yl)methyl)-5,6-dihydro-4H-thieno[2,3-c]pyrrol-4-one] | ≤ 10 | ≤ 500
Cn1nccc1Nc1nccc(-c2cc3c(s2)C(C)(C)N(Cc2ccc(C(F)(F)F)nc2)C3=O)n1 [Example 4, 6,6-dimethyl-2-(2-((1-methyl-1H-pyrazol-5-yl)amino)pyrimidin-4-yl)-5-((6-(trifluoromethyl)pyridin-3-yl)methyl)-5,6-dihydro-4H-thieno[2,3-c]pyrrol-4-one] | ≤ 10 | 500 to 1000
Cn1nccc1Nc1nccc(-c2cc3c(s2)C(C)(C)N(Cc2nc(C(F)(F)F)cs2)C3=O)n1 [Example 5, 6,6-dimethyl-2-(2-((1-methyl-1H-pyrazol-5-yl)amino)pyrimidin-4-yl)-5-((4-(trifluoromethyl)thiazol-2-yl)methyl)-5,6-dihydro-4H-thieno[2,3-c]pyrrol-4-one] | ≤ 10 | ≤ 500
Cn1nccc1Nc1nccc(-c2cc3c(s2)C(C)(C)N(Cc2ccnc(C(F)(F)F)n2)C3=O)n1 [Example 6, 6,6-dimethyl-2-(2-((1-methyl-1H-pyrazol-5-yl)amino)pyrimidin-4-yl)-5-((2-(trifluoromethyl)pyrimidin-4-yl)methyl)-5,6-dihydro-4H-thieno[2,3-c]pyrrol-4-one] | ≤ 10 | ≤ 500
Cn1nccc1Nc1nccc(-c2cc3c(s2)C(C)(C)N(Cc2cc(C(F)(F)F)no2)C3=O)n1 [Example 7, 6,6-dimethyl-2-(2-((1-methyl-1H-pyrazol-5-yl)amino)pyrimidin-4-yl)-5-((3-(trifluoromethyl)isoxazol-5-yl)methyl)-5,6-dihydro-4H-thieno[2,3-c]pyrrol-4-one] | ≤ 10 | ≤ 500
Cn1nccc1Nc1nccc(-c2cc3c(s2)C(C)(C)N(CCc2ccnc(C(F)(F)F)c2)C3=O)n1 [Example 8, 6,6-dimethyl-2-(2-((1-methyl-1H-pyrazol-5-yl)amino)pyrimidin-4-yl)-5-(2-(2-(trifluoromethyl)pyridin-4-yl)ethyl)-5,6-dihydro-4H-thieno[2,3-c]pyrrol-4-one] | – | 1000 to 5000
Cn1nccc1Nc1nccc(-c2cc3c(s2)C(C)(C)N([C@H](CO)c2cccc(Cl)c2)C3=O)n1 [Example 11, (S)-5-(1-(3-chlorophenyl)-2-hydroxyethyl)-6,6-dimethyl-2-(2-((1-methyl-1H-pyrazol-5-yl)amino)pyrimidin-4-yl)-5,6-dihydro-4H-thieno[2,3-c]pyrrol-4-one] | – | ≤ 500
CC(c1cccc(C(F)(F)F)n1)N1C(=O)c2cc(-c3ccnc(Nc4ccnn4C)n3)sc2C1(C)C (stereo not shown) [Example 12, 6,6-dimethyl-2-(2-((1-methyl-1H-pyrazol-5-yl)amino)pyrimidin-4-yl)-5-(1-(6-(trifluoromethyl)pyridin-2-yl)ethyl)-5,6-dihydro-4H-thieno[2,3-c]pyrrol-4-one] | – | 1000 to 5000
CC(c1ccnc(C(F)(F)F)n1)N1C(=O)c2cc(-c3ccnc(Nc4ccnn4C)n3)sc2C1(C)C (stereo not shown) [Example 13, 6,6-dimethyl-2-(2-((1-methyl-1H-pyrazol-5-yl)amino)pyrimidin-4-yl)-5-(1-(2-(trifluoromethyl)pyrimidin-4-yl)ethyl)-5,6-dihydro-4H-thieno[2,3-c]pyrrol-4-one] | 10 to 100 | ≤ 500
Cn1nccc1Nc1nccc(-c2cc3c(s2)C(C)(C)N(CC(=O)N[C@H](CO)c2cccc(Cl)c2)C3=O)n1 [Example 14, (S)—N-(1-(3-chlorophenyl)-2-hydroxyethyl)-2-(6,6-dimethyl-2-(2-((1-methyl-1H-pyrazol-5-yl)amino)pyrimidin-4-yl)-4-oxo-4H-thieno[2,3-c]pyrrol-5(6H)-yl)acetamide] | ≤ 10 | ≤ 500
CC(C(=O)N[C@H](CO)c1cccc(Cl)c1)N1C(=O)c2cc(-c3ccnc(Nc4ccnn4C)n3)sc2C1(C)C (stereo partly drawn) [Example 15, N—((S)-1-(3-chlorophenyl)-2-hydroxyethyl)-2-(6,6-dimethyl-2-(2-((1-methyl-1H-pyrazol-5-yl)amino)pyrimidin-4-yl)-4-oxo-4H-thieno[2,3-c]pyrrol-5(6H)-yl)propanamide] | – | 500 to 1000
Cn1nccc1Nc1nccc(-c2cc3c(s2)C(C)(C)N(CC(=O)NCc2ccnc(C(F)(F)F)c2)C3=O)n1 [Example 16, 2-(6,6-dimethyl-2-(2-((1-methyl-1H-pyrazol-5-yl)amino)pyrimidin-4-yl)-4-oxo-4H-thieno[2,3-c]pyrrol-5(6H)-yl)-N-((2-(trifluoromethyl)pyridin-4-yl)methyl)acetamide] | – | 1000 to 5000
Cn1nccc1Nc1nccc(-c2cc3c(s2)C(C)(C)N(CCN[C@H](CO)c2cccc(Cl)c2)C3=O)n1 [Example 17, (S)-5-(2-((1-(3-chlorophenyl)-2-hydroxyethyl)amino)ethyl)-6,6-dimethyl-2-(2-((1-methyl-1H-pyrazol-5-yl)amino)pyrimidin-4-yl)-5,6-dihydro-4H-thieno[2,3-c]pyrrol-4-one] | – | 500 to 1000
